ChEMBL document CHEMBL5344454 (ACS Med Chem Lett, 2024)

Test: Inhibition of Huntingtin polyQ 49 mutant in Huntington's disease patient derived human iPSC cells incubated for 48 hrs by HTRF assay
Type: cell-based

| Structure (SMILES) | IC50 [nM] |
| --- | --- |
| Cc1cn2nc(-c3cc(F)c4nc(C5CCNCC5)cn4c3)cc(C)c2n1 | < 100 |
| Cc1cn2nc(-c3cc(F)c4nc(C5CCN(C6CC6)CC5)cn4c3)cc(C(F)F)c2n1 | < 100 |
| Cc1cn2nc(-c3cc(F)c4nc(C5CCN(C6COC6)CC5)cn4c3)cc(C)c2n1 | < 100 |
| Cc1cn2nc(-c3cc(F)c4nc(C5CCNC5)cn4c3)cc(C)c2n1 (stereo unspecified) | < 100 |

Continued, values first:

| IC50 [nM] | Structure (SMILES) |
| --- | --- |
| < 100 | Cc1cn2nc(-c3cc(F)c4nc(N5CCC(N(C)C)CC5)oc4c3)cc(C(F)(F)F)c2n1 |
| < 100 | Cc1cn2nc(-c3cc(F)c4nn(C5CCNCC5)nc4c3)cc(C(F)F)c2n1 |
